Results: US8969554B2, “6-acyl-1,2,4-triazine-3,5-dione derivative and herbicides” (Kumiai Chemical Industry Co., Ltd., priority 2010, dated 2015)

What was measured:
Assay type in all cases: in vivo
Parameters in all cases: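 index 0 to 10 in 10% steps of herbicidal effect with 10 meaning complete death and 0 below 10%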
Monochoria vaginalis = test: Herbicidal activity by paddy field soil treatment (Test Example 1); conditions: 1000 g of effective component per hectare, evaluated on day 21 after the treatment, criteria of Table 72
Description: (§1) Test for Determining Herbicidal Activity by Paddy Field Soil Treatment A 100 cm^2 wide plastic pot was filled with a paddy field soil and, after watering and shuffling, seeds of each of Echinochloa oryzicola, Monochoria vaginalis, and Scirpus juncoides Rocxb. were sowed and watered to a depth of 3 cm. On the next day, the wettable powder obtained in view of Formulation example 1 was diluted with water and applied on water surface. The application amount was 1000 g of effective component per hectare. After that, the plants were cultivated in a greenhouse, and on day 21 after the treatment, evaluation was made by the criteria of Table 72 for determining the herbicidal effects. [table]

Scirpus juncoides Rocxb. = test: as above; conditions: applied on water surface, 1000 g of effective component per hectare, day 21 after the treatment
Description: as §1

Indian millet [1] = test: Herbicidal activity by field foliage treatment (Test example 3); conditions: 1000 g effective component per hectare, day 14 after the treatment
Description: (§2) [table] Test for Determining Herbicidal Activity by Field Foliage Treatment A 80 cm^2 wide plastic pot was filled with a field soil and seeds of each of Indian millet and A. retroflexus were sowed and then incubated for 2 weeks in a green house. The wettable powder produced with reference to the Formulation example 1 was diluted water, and applied from the air to entire body of the plant as foliage treatment by using a small sprayer in an amount of 1000 liters per hectare so that the effective component is 1000 g per hectare. After that, the plants were cultivated in a greenhouse, and on day 14 after the treatment, evaluation was made by the criteria described in Table 72 for determining the herbicidal effects.

A. retroflexus [2] = test: as above; conditions: 1000 g effective component per hectare, day 14 after the treatment
Description: as §2

A. retroflexus [3] = test: Herbicidal activity by field soil treatment (Test example 2); conditions: 1000 g effective component per hectare, day 21 after the treatment
Description: (§3) [table] Test for Determining Herbicidal Activity by Field Soil Treatment A 80 cm^2 wide plastic pot was filled with a field soil and seeds of each of Echinochloa crus-galli, foxtail, Indian millet, and A. retroflexus were sowed and then covered with soil. The wettable powder produced with reference to the Formulation example 1 was diluted water, and applied on the soil surface by using a small sprayer in an amount of 1000 liters per hectare so that the effective component is 1000 g per hectare. After that, the plants were cultivated in a greenhouse, and on day 21 after the treatment, evaluation was made by the criteria described in Table 72 for determining the herbicidal effects.

Indian millet [4] = test: as above; conditions: 1000 g effective component per hectare, day 21 after the treatment
Description: as §3

Echinochloa oryzicola = test: Herbicidal activity by paddy field soil treatment (Test Example 1); conditions: 1000 g of effective component per hectare, evaluated on day 21 after the treatment, criteria of Table 72
Description: as §1

Echinochloa crus-galli = test: Herbicidal activity by field foliage treatment (Test example 3); conditions: 1000 g effective component per hectare, day 14 after the treatment
Description: as §2, with “Test example 3” for “[table]”

Structure (SMILES) | Herbicidal effects index number, Monochoria vaginalis (Monochoria vaginalis) | herbicidal effect index, S. juncoides Rocxb. (Scirpus juncoides Rocxb.) | herbicidal effect index, Abutilon theophrasti (Indian millet [1]) | herbicidal effect index, Amaranthus retroflexus (A. retroflexus [2]) | herbicidal effect index, Amaranthus retroflexus (A. retroflexus [3]) | herbicidal effect index, Abutilon theophrasti (Indian millet [4]) | Herbicidal effects index number, Echinochloa oryzicola (Echinochloa oryzicola) | herbicidal effect index, Echinochloa crus-galli (Echinochloa crus-galli)
Cn1nc(C(=O)C2=C(O)CCCC2=O)c(=O)n(CS(C)(=O)=O)c1=O [Compound I-47] | 10 | 10 | 9 | 10 | 10 |  |  | 
COc1ccc(-n2c(=O)c(C(=O)C3=C(O)CCCC3=O)nn(C)c2=O)cc1 [Compound I-62] | 8 |  | 9 | 10 |  |  |  | 
COc1cc(OC)cc(-n2c(=O)c(C(=O)C3=C(O)CCCC3=O)nn(C)c2=O)c1 [Compound I-94] | 10 | 10 | 10 | 10 | 10 | 10 |  | 
Cc1cc(-n2c(=O)c(C(=O)C3=C(O)CCCC3=O)nn(C)c2=O)no1 [I-189] | 10 | 10 | 9 | 10 | 10 | 10 |  | 
Cn1nc(C(=O)C2=C(O)CCCC2=O)c(=O)n(N2CCS(=O)(=O)CC2)c1=O [I-204] | 8 |  |  | 7 |  |  |  | 
Cn1nc(C(=O)C2=C(O)CCCC2=O)c(=O)n(Cc2ccccc2)c1=O [I-205] | 10 | 10 | 10 | 10 |  |  | 7 | 
O=C1CCCC(O)=C1C(=O)c1nn(-c2ccccc2)c(=O)n(-c2ccccc2)c1=O [I-262] | 8 |  |  |  |  |  |  | 
Cn1nc(C(F)(F)F)cc1-n1c(=O)c(C(=O)C2=C(O)CCCC2=O)nn(C)c1=O [I-272] | 8 | 8 | 9 | 10 | 8 |  | 7 | 6
COc1ccc(-n2c(=O)c(C(=O)C3=C(O)CCCC3=O)nn(C)c2=O)nc1 [I-290] | 10 | 10 | 9 | 10 | 8 | 10 |  | 
Cc1ccc(-n2c(=O)c(C(=O)C3=C(O)CCCC3=O)nn(C)c2=S)nc1 [I-291] | 10 | 10 | 9 | 10 | 8 | 10 |  | 
C=Cc1ccc(-n2c(=O)c(C(=O)C3=C(O)CCCC3=O)nn(C)c2=O)nc1 [I-293] | 10 | 10 | 8 | 10 |  | 10 |  | 
CCCCCCCCn1c(=O)c(C(=O)C2=C(O)CCCC2=O)nn(C)c1=O [I-295] |  |  | 9 | 8 |  |  |  | 
Cn1nc(C(=O)C2=C(O)CCCC2=O)c(=O)n(-c2cc(Cl)c(S(C)(=O)=O)c(Cl)c2)c1=O [I-301] | 10 | 10 | 7 | 10 |  |  | 10 | 
CCCCn1c(=O)c(C(=O)C2=C(O)CCCC2=O)nn(-c2ccccn2)c1=O [I-306] | 9 |  | 9 | 7 | 10 | 7 |  | 
CCCCCn1nc(C(=O)C2=C(O)CCCC2=O)c(=O)n(-c2ccccc2)c1=O [I-308] | 8 |  | 8 |  | 10 |  |  | 
CCc1ccc(-n2c(=O)c(C(=O)C3=C(O)CCCC3=O)nn(C)c2=O)nc1 [I-462] | 10 | 10 | 10 | 10 | 9 | 10 |  | 
CN(c1ccccc1)n1c(=O)c(C(=O)C2=C(O)CCCC2=O)nn(C)c1=O [I-466] | 10 | 10 | 10 | 10 |  |  | 8 | 
Cc1cc(C)nc(-n2c(=O)c(C(=O)C3=C(O)CCCC3=O)nn(C)c2=O)n1 [I-467] | 10 | 10 | 7 | 10 |  |  |  | 8
Cc1cc(C)c(-n2c(=O)c(C(=O)C3=C(O)CCCC3=O)nn(C)c2=O)c(C)c1 [I-472] | 10 | 8 | 7 | 10 |  |  |  | 
Cn1nc(C(=O)C2=C(O)CCCC2=O)c(=O)n(-c2c(F)c(F)c(F)c(F)c2F)c1=O [I-473] | 10 | 8 | 10 | 3 |  |  | 8 | 
Cn1ncc(C(=O)c2nn(C)c(=O)n(-c3ccccc3)c2=O)c1O [II-50, 6-(5-hydroxy-1-methyl-1H-pyrazole-4-carbonyl)-2-methyl-4-phenyl-1,2,4-triazine-3,5 (2H, 4H)-dione] | 8 | 7 | 8 | 10 |  |  |  | 
CCCS(=O)(=O)Oc1c(C(=O)c2nn(C)c(=O)n(-c3ccccc3)c2=O)cnn1C(C)C [II-267, 1-isopropyl-4-(2-methyl-3,5-dioxo-4-phenyl-2,3,4,5-tetrahydro-1,2,4-triazine-6-ylcarbonyl)-1H-pyrazole-5-yl propane-1-sulfonate] | 8 |  | 9 |  |  |  |  | 
COc1cccc(-n2c(=O)c(C(=O)O)nn(C)c2=O)c1 [V-61] |  |  |  |  |  | 8 |  | 
Cc1ccc(-n2c(=O)c(C(=O)O)nn(C)c2=S)nc1 [V-291] | 8 |  |  |  |  |  |  | 
CN(c1ccccc1)n1c(=O)c(C(=O)O)nn(C)c1=O [V-359] | 10 | 10 | 10 | 10 |  |  | 8 | 
Cc1cc(C)nc(-n2c(=O)c(C(=O)O)nn(C)c2=O)n1 [V-360] | 10 | 10 | 7 | 10 |  |  |  | 8
Cc1cc(C)c(-n2c(=O)c(C(=O)O)nn(C)c2=O)c(C)c1 [V-366] | 10 | 8 | 7 | 10 |  |  |  | 
Cn1nc(C(=O)O)c(=O)n(-c2c(F)c(F)c(F)c(F)c2F)c1=O [V-367] | 10 | 8 | 10 |  |  |  | 8 | 
